Laboratory results: ChEMBL document CHEMBL3044638, “Biological evaluation of imidazole derivatives as inhibitors of hydroperoxide lyase, a key enzyme in plant volatile biosynthesis” (J Pestic Sci, 2011)

Molecular target: T1, Fatty acid hydroperoxide lyase, chloroplastic (Solanum lycopersicum, UniProt K4CF70)
T1 sequence (K4CF70 whole entry): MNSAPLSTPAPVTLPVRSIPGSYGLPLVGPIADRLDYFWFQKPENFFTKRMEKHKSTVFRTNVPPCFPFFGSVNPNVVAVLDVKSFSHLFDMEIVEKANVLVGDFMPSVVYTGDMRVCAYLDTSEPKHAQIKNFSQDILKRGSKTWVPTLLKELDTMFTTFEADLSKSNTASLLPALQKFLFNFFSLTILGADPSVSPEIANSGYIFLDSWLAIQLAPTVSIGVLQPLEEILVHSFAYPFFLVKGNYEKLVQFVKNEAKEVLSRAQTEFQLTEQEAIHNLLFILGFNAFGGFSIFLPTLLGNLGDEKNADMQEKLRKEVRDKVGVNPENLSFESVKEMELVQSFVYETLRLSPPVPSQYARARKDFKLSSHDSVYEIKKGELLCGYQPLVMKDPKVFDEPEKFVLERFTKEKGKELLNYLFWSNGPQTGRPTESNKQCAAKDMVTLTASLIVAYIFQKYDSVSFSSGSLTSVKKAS
Experiment: Inhibition of recombinant Solanum lycopersicum (tomato) fatty acid 13-hydroperoxide lyase using (13S)-HPOT substrate by spectrophotometry

IC50 [µM] | Structure (SMILES)
> 100 | Fc1cc(F)cc(COC(Cn2ccnc2)c2ccc(Cl)cc2Cl)c1 (centres undefined)
46 | Clc1ccc(C(Cn2ccnc2)OCc2cccc(Cl)c2Cl)c(Cl)c1 (centres undefined)
> 100 | Fc1ccc(COC(Cn2ccnc2)c2ccc(Cl)cc2Cl)cc1F (centres undefined)
> 100 | Fc1ccc(F)c(COC(Cn2ccnc2)c2ccc(Cl)cc2Cl)c1 (centres undefined)
> 100 | Fc1ccc(COC(Cn2ccnc2)c2ccc(Cl)cc2Cl)c(F)c1 (centres undefined)
> 100 | Clc1ccc(C(Cn2ccnc2)OCc2ccccc2Cl)c(Cl)c1 (centres undefined)
39 | Clc1ccc(C(Cn2ccnc2)OCc2ccccc2)c(Cl)c1 (centres undefined)
> 100 | Clc1ccc(C(Cn2ccnc2)OCc2ccc(Cl)nc2)c(Cl)c1 (centres undefined)
65 | Clc1ccc(COC(Cn2ccnc2)c2ccc(Cl)cc2Cl)c(Cl)c1 (centres undefined) [MICONAZOLE]
> 100 | Clc1ccc(C(Cn2ccnc2)OCc2c(Cl)cccc2Cl)c(Cl)c1 (centres undefined) [ISOCONAZOLE]
> 100 | Clc1cccc(COC(Cn2ccnc2)c2ccc(Cl)cc2Cl)c1 (centres undefined)
50 | CC(Cc1ccc(O)c(O)c1)C(C)Cc1ccc(O)c(O)c1 (centres undefined) [NORDIHYDROGUAIARETIC ACID]
> 100 | Clc1ccc(C(Cn2ccnc2)OCc2ccc(Cl)c(Cl)c2)c(Cl)c1 (centres undefined)

Molecular target: T1, Fatty acid hydroperoxide lyase, chloroplastic
Experiment: Binding affinity to recombinant Solanum lycopersicum (tomato) fatty acid 13-hydroperoxide lyase by optical difference spectroscopy

Kd [µM] | Structure (SMILES)
13.5 | Clc1ccc(C(Cn2ccnc2)OCc2ccccc2)c(Cl)c1 (centres undefined)
